{
  "source": "patent US20060194262A1",
  "about": "“P27 ubiquitination assay and methods of use” (priority 2004, published 2006)",
  "key": {"[1]": {"tested_on": "T1, p27 ubiquitination (E1, E2, E3 SCF^Skp2, Cks1)", "T1 construct": "His; Strep tag (cleaved yes); GST; made in house; host or cells: Sf9 (His-E1; p27/Cdk2/cyclin E); E. coli (His-UbcH3, Cks1); baculovirus-infected insect cells (SCF-Skp2)", "assay": "p27 ubiquitination assay, plate capture format (DMSO tolerance)", "type": "biochemical, Human", "text": "This assay measures the ubiquitination of cell cycle inhibitor p27 in a high-throughput-capable in vitro reconstituted system that mimics the ubiquitination of p27 in vivo. Ubiquitinated p27 is captured using an anti-p27 antibody-coated plate and detected by Europium (Eu)-labeled streptavidin that binds biotinylated ubiquitin. The assay as described below incorporates the addition of a test compound to the ubiquitination reaction.\nAssay mix A (see below) contained: 3× concentration ubiquitin buffer (120 mM Tris·HCl pH 7.5, 15 mM MgCl2), 3 mM dithiothreitol, 15 ng/μL E1, 450 ng/μLE2, 15 ng/μL E3, and 12 ng/μL pre-phosphorylated p27.\nStarting solution (see below) contained 0.75 mg/mL biotinylated ubiquitin and 0.75 ng/μL Cks1 in assay dilution buffer (30 mM Tris·HCl pH7.5, 1 mM DTT, 19.5% glycerol). Starting solution for negative control contains 0.75 mg/mL biotinylated ubiquitin in assay dilution buffer (30 mM Tris·HCl pH7.5, 1 mM DTT, 19.5% glycerol).\nThe capture plates were coated as follows. […]\nThe ubiquitination reaction was run as follows: 5 μL of a test compound in 6% dimethylsulfoxide (DMSO) was added to each well of a V-bottom plate. […] 25 μL enhancement solution was added per well, and the plates were read to determine the amount of time-resolved fluorescence emission at 615 nm for Europium chelate. […]"}, "[2]": {"tested_on": "p27 ubiquitination (E1, E2, E3 SCF^Skp2, Cks1)", "settings": "reaction includes 5 mM MgCl2", "excerpt": "A homogenous, time-resolved fluorescence resonance energy transfer (HTR-FRET) assay was developed for high throughput screening of compounds that block p27 ubiquitination in vitro. In this assay, p27 is modified with a mixture of ubiquitin (Ub) and biotinylated ubiquitin (Bio-Ub) in the presence of E1, E2, E3 and Cks1 (FIG. 11). A rabbit anti-phospho-p27 antibody and Lance Eu labeled Protein G (Eu-PRG) were used as a donor and Cy5-labeled streptavidin (Cy5-SA or Dylite-SA) is used as an acceptor. Ubiquitinated p27 is detected by FRET signal generated between Eu and Cy5.\nIn this format, Bio-Ub is used as a tracer to label ubiquitinated p27. Lance Eu-labeled Protein G (Eu-PRG) coupled to anti-phospho-p27 is used as the FRET donor, and SA-Cy5 is used as the FRET acceptor. The FRET signal is measured as the ratio of fluorescence emission of Cy5 at 665 nm over that of Eu at 620 nm after excitation of Eu at 340 nm.\nNext, stopping conditions for the p27 ubiquitination were determined.\nAssay Procedures: • 1) Prepare Starting solutions and incubate at room temperature for 20˜30 min Start+Cks1: 12 μM Ub, 3 μM Bio-Ub, and 1.875 ng/μl (187.5 nM) Cks1 in assay dilution buffer. Start−Cks1: 12 μM Ub and 3 μM Bio-Ub in assay dilution buffer. • 2) Prepare Assay mix A as indicated in Table 3 • 3) Set up reaction: In an assay plate, add 5 μl/well of Assay mix A, compound in 6% DMSO and 0.03% Brij35 (30 μg/ml; final concentration at 10 μg/ml), and Starting solutions. The total assay volume is 15 μl. Incubate at room temperature (˜23° C.-25° C.) for 1 hour. • 4) Stop the reaction with the addition of 15 μl/well of Stopping solution (40 mM EDTA, 0.1% Tween 20, 250 nM Cy5, 2 nM Eu-PRG, and 8 nM anti-phospho-p27 in PBS)"}, "E1": {"molecular_target": "T2, E1 (Homo sapiens, UniProt P22314)", "T2 sequence (P22314 1-1058)": "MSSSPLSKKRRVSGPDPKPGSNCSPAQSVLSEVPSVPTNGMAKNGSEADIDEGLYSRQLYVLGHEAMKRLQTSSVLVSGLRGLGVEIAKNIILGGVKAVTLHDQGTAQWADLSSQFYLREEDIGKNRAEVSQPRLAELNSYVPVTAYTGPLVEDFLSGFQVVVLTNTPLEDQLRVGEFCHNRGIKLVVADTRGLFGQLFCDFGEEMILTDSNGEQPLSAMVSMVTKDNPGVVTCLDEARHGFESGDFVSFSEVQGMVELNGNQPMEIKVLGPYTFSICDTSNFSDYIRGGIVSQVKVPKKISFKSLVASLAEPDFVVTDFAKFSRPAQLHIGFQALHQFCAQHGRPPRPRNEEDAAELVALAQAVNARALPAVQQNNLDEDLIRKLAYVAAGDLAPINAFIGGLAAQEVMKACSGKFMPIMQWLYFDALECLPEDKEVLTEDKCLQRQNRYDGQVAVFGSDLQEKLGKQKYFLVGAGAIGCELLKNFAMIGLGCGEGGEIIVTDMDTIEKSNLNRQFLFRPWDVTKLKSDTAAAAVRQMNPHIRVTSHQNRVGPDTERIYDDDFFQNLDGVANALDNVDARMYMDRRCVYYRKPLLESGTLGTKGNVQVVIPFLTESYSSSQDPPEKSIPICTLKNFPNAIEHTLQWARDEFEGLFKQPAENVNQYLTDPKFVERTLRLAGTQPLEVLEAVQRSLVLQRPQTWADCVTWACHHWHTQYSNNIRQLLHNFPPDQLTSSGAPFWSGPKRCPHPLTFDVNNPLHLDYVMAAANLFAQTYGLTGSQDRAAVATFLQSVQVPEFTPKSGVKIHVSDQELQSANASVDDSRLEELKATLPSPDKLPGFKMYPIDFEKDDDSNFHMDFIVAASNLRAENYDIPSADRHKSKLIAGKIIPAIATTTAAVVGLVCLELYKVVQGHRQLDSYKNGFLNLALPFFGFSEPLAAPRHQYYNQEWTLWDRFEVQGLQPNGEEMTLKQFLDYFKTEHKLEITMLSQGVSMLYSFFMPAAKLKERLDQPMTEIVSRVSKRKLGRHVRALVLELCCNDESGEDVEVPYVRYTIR", "assay": "apparent Km of ubiquitin for E1", "type": "biochemical", "settings": "read-out: apparent Km of Ub for E1", "procedure": "In an HTR-FRET assay, the background FRET increases as the concentrations of Eu and Cy5 increase. In general, to achieve a low background signal, Eu concentrations should be in the low nM range while Cy5 concentrations can be up to 100-200 nM. To determine the optimal concentration of Bio-Ub used in the p27 Ub assay, 80 nM of p27 was ubiquitinated with 0-4 μM of Bio-Ub and diluted 1:4 with a detection mixture containing a final concentration of 5 nM Eu-PRG, 10 nM anti-p27, and 25-125 nM SA-Cy5. 1 uM of Bio-Ub with 125 nM of Cy5-SA gave the best signal-to-background (S/B) ratio (FIG. 12). […] Since the apparent Km of Ub for E1 is about 2 μM, 4 μM of unlabeled ubiquitin was used in the reaction (2×apparent Km). Ubiquitination of p27 in the presence of 4 μM Ub and 1 μM Bio-Ub was very similar to that of p27 in the presence of saturating concentrations of Bio-Ub (28 μM) (FIG. 13)."}},
  "note": "Like-named read-outs stand apart in the source and are kept apart here.",
  "data": [
    {"molecule": "C[S+](C)[O-]", "note": "[DMSO, dimethylsulfoxide]", "values": [
      {"measurement": "p27 ubiquitination activity remained", "setting": "[1]; 2% DMSO, titration between 0 and 10% DMSO", "result": "approximately 60%"},
      {"measurement": "p27 ubiquitination", "setting": "[1]; above 15% (v/v) of DMSO, initial titration", "result": "nearly completely lost"}
    ]},
    {"molecule": "O=C(O)CN(CCN(CC(=O)O)CC(=O)O)CC(=O)O", "note": "[EDTA]", "values": [
      {"measurement": "effect on p27 ubiquitination", "setting": "[2]; 5 mM EDTA alone", "result": "no effect"},
      {"measurement": "p27 ubiquitination", "setting": "[2]; 10 mM EDTA", "result": "only partially inhibited"},
      {"measurement": "Ubiquitination of p27", "setting": "[2]; 20 mM EDTA, data not shown", "result": "completely inhibited"}
    ]},
    {"molecule": "ubiquitin", "values": [
      {"measurement": "Km", "setting": "E1", "result": "~2", "unit": "µM"}
    ]}
  ]
}
